Results on one molecule are retold here after EP2050437A1, “Improved pharmaceutical dry powder compositions for inhalation” (Laboratoires SMB, priority 2007, dated 2009).

Holding throughout (format): physicochemical
Data set [1] can be described thus: In vitro deposition / fine particle assessment with Multi-stage Liquid Impinger (MsLI), Aerolyzer device. Also on record: Metered dose / Device / Throat / Stage 1 / Stage 2 / Stage 3 / Stage 4 / Filter: unit not given here. The following applies: loaded dose=15mg; for FPD: Fine Particle Dose, aerodynamic diameter inferior to 5 µm. As to the method:
The Fine Particle Dose (FPD) has been determined by the method described in the European Pharmacopoeia 4 for the aerodynamic assessment of fine particle, using Apparatus C - Multi-stage Liquid Impinger (MsLI). A dry powder inhalation device (Aerolyzer®, Novartis, Switzerland) was filled with a No. 3 HPMC capsule (Capsugel, France) loaded with 15 mg powder. The flow rate was adjusted to a pressure drop of 4 kPa, as typical for inspiration by a patient, resulting in a flow rate of 100 l/min during 2.4 seconds. At least 3 Fine Particle Dose (FPD) determinations were performed on each formulation and analysis was carried out by a suitable and validated analytical HPLC method. In order to increase the UV absorptivity of the molecule, a derivatization method was applied. The suitable and validated quantification method is described in the USP 25. The HPLC system consisted of a High Performance Liquid Chromatography system (HP 1100 series, Agilent technologies, Belgium), equipped with a quartenary pump, an autosampler and a variable wavelength UV detector set at 365 nm. The separation system was a 30 cm x 3.9 mm stainless steel (5 µm particle size) reversed-phase C18 column (Alltima, Alltech, Belgium). Samples of 20 µl volume were injected. The mobile phase was prepared by dissolving 2 g of Tris(hydroxymethyl) aminomethane in 800 ml of water. After this, 20 ml of H2SO4 1 N was added and then the solution was diluted with acetonitrile to obtain 2 l, mixed and passed through a filter of 0.2 µm porosity. The flow rate was 1.2 ml/min. The mass of test substance retained at each stage was determined from the HPLC analysis of the recovered solutions. Starting at the filter, a cumulative mass deposition (undersize in percentage) vs. cut-off diameter of the respective stages was derived and the FPD was calculated by interpolating the mass of active ingredient less than 5 µm. […] It is considered to be directly proportional to the amount of drug able to reach the pulmonary tract in vivo, and consequently, the higher the value FPD, the higher the estimated lung deposition. […] Table 2: In vitro deposition study, with formulation given in example 1 vs. micronized tobramycin (raw material) (loaded dose=15mg, n=3).

A short description of data set [2]: Particle size distribution by laser diffraction, Mastersizer 2000 with dry sampling (Scirocco). The conditions noted are these: individual particles, dry powder. An excerpt: However, it may be desirable for unstable (redispersible) agglomerates to be formed in the powder, and the size of the agglomerates may be as large as 10 µm or more. The size of particles in the powder, when considering the agglomerates, is to be taken as the size of the individual particles making up the agglomerate. The sizes of the individual particles and of the agglomerates may be determined using a suitable laser light diffraction techniques. For example, the higher compressed air values applied in the dispersion unit of the Mastersizer 2000® (Malvern, U.K.) (up to 4 bar), permit all the agglomerates to break down, especially for micron-sized powders, as is the case for DPI formulations. […] For each formulation, the particle size distribution is measured by laser diffractometry, using a dry sampling system with a suitable SOP (Standard Operating Procedure), (Scirocco®, Mastersizer 2000, Malvern, UK) and a Spraytec, (Malvern). […] The particle size distribution measured with the Mastersizer 2000, Scirocco (Malvern) gives an indication of the size distribution of the individual particles of the powder composition as the powder agglomerates are broken down during the measuring process. […]

Data set [3] can be described thus: Particle size distribution by laser diffraction, Spraytec with inhalation cell (simulated breathing). The following applies: agglomerates as at the exit of the DPI. From the text:
However, it may be desirable for unstable (redispersible) agglomerates to be formed in the powder, and the size of the agglomerates may be as large as 10 µm or more. The size of particles in the powder, when considering the agglomerates, is to be taken as the size of the individual particles making up the agglomerate. The sizes of the individual particles and of the agglomerates may be determined using a suitable laser light diffraction techniques. For example, the higher compressed air values applied in the dispersion unit of the Mastersizer 2000® (Malvern, U.K.) (up to 4 bar), permit all the agglomerates to break down, especially for micron-sized powders, as is the case for DPI formulations. […] This allows the size properties of DPIs to be measured under simulated breathing conditions. For each formulation, the particle size distribution is measured by laser diffractometry, using a dry sampling system with a suitable SOP (Standard Operating Procedure), (Scirocco®, Mastersizer 2000, Malvern, UK) and a Spraytec, (Malvern). The particle size distribution measured with the Mastersizer 2000, Scirocco (Malvern) gives an indication of the size distribution of the individual particles of the powder composition as the powder agglomerates are broken down during the measuring process. […]

As for `NC[C@H]1O[C@H](O[C@H]2[C@H](O)[C@@H](O[C@H]3O[C@H](CO)[C@@H](O)[C@H](N)[C@H]3O)[C@H](N)C[C@@H]2N)[C@H](N)C[C@@H]1O` [Micronized tobramycin, tobramycin], in data set [1] (n=3), the FPD was 5.5 ± 0.9 mg and the Metered dose is 12.9 ± 0.3. Besides, the FPD entry in data set [1] (n=3, listed as micronized tobramycin) is “around 5.5 mg”. Besides, in data set [1] (mass deposited, n=3), the Filter is 1.4 ± 0.3, the “Stage 1” value was 0.9 ± 0.3, the “Stage 2” value turned out to be 0.6 ± 0.4 and the “Stage 3” value is 2.1 ± 0.9. Further, in data set [1] (mass deposited, n=3), the “Stage 4” value is 1.7 ± 0.6 and the Throat was 0.3 ± 0.1. Also, the Device in data set [1] (mass deposited, n=3, 100 l/min during 2.4 seconds) was found to be 6.0 ± 0.7. The “mass median diameter (d(0.5))” value in data set [2] was “about 1.3 µm”. Also, the “particles having a diameter below 5.0 µm” value in data set [3] is 72%.
